Laboratory results from ChEMBL document CHEMBL1201862, “PubChem BioAssay data set” (2004).
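Briefly, cells in 96-well plates were exposed to five compound concentrations for 48 h, and endpoints were estimated by linear interpolation. GI50: concentration for 50% inhibition of growth.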 The source made the active and inactive calls. Cut-off read from the data, not from the text of the source: active = GI50 up to about 1.1 µM and inactive = higher.

Legend:
Assay in all cases: growth of human tumour cells (NCI), 48 h
MOLT-4 = tested on: MOLT-4
COLO 205 = tested on: COLO 205
CAKI-1 = tested on: CAKI-1
SN12C = tested on: SN12C
SK-MEL-5 = tested on: SK-MEL-5
HOP-62 = tested on: HOP-62
NCI-H460 = tested on: NCI-H460
OVCAR-4 = tested on: OVCAR-4
786-0 = tested on: 786-0
EKVX = tested on: EKVX
DMS-114 = tested on: DMS-114
M14 = tested on: M14
KM12 = tested on: KM12
IGROV-1 = tested on: IGROV-1
HOP-92 = tested on: HOP-92
U-251 = tested on: U-251
A498 = tested on: A498
PC-3 = tested on: PC-3
Hs-578T = tested on: Hs-578T
MCF7 = tested on: MCF7

Measured: GI50

CCOC(=O)Oc1ccc2[nH]c3c(C)cc(N)c(C)c3c2c1
inactive: MOLT-4 78.9 µM | COLO 205 > 100 µM | CAKI-1 > 100 µM | SN12C > 100 µM | SK-MEL-5 > 100 µM | HOP-62 > 100 µM | NCI-H460 > 100 µM | OVCAR-4 > 100 µM | 786-0 > 100 µM | EKVX > 100 µM | DMS-114 46.7 µM | M14 98.4 µM | KM12 68.4 µM

C[C@]12CCC(=O)C=C1CC[C@@H]1[C@@H]2[C@@H](O)C[C@@]2(C)[C@H]1CC[C@]2(O)C(=O)COC(=O)CCC1CCCC1 [HYDROCORTISONE CYPIONATE]
inactive: MOLT-4 > 100 µM | IGROV-1 > 100 µM | COLO 205 > 100 µM | CAKI-1 87.5 µM | SK-MEL-5 > 100 µM | NCI-H460 > 100 µM | 786-0 > 100 µM | HOP-92 > 100 µM | U-251 > 100 µM | EKVX > 100 µM | DMS-114 > 100 µM | KM12 > 100 µM | A498 > 100 µM
active: SN12C 0.693 µM

COC(=O)C(=Cc1cc(OC)c(OC)c(OC)c1-c1cc2c(cc1C(C)=O)OCO2)C(=O)OC
inactive: MOLT-4 52.2 µM | IGROV-1 50.1 µM | COLO 205 35.3 µM | CAKI-1 54.3 µM | SN12C 27.7 µM | SK-MEL-5 32.7 µM | HOP-62 36.8 µM | NCI-H460 62.8 µM | 786-0 33.1 µM | HOP-92 44 µM | U-251 37.2 µM | EKVX 72.8 µM | DMS-114 37.5 µM | KM12 32.2 µM

CCOc1ccc(/N=N/c2ccc3oc(=O)c(/C(C)=N\NC(=O)CC(=O)Nc4ccc(Cl)cc4)cc3c2)cc1
inactive: MOLT-4 4.09 µM | IGROV-1 22 µM | COLO 205 30.5 µM | CAKI-1 > 100 µM | SN12C 26.1 µM | SK-MEL-5 14.3 µM | HOP-62 17.6 µM | OVCAR-4 20.4 µM | HOP-92 25.2 µM | U-251 16.4 µM | EKVX 8.36 µM | DMS-114 15.9 µM | KM12 19.2 µM

COc1cc2c(c3oc(-c4ccc5c(c4)OCO5)c(O)c(=O)c13)CCC(C)(C)O2
inactive: MOLT-4 > 100 µM | IGROV-1 > 100 µM | COLO 205 > 100 µM | SN12C > 100 µM | SK-MEL-5 > 100 µM | 786-0 > 100 µM | EKVX > 100 µM | DMS-114 > 100 µM | M14 > 100 µM | KM12 > 100 µM | A498 > 100 µM

CC(=O)OC1COC(N2C(=O)/C(=N\NC(N)=S)c3cc(Br)ccc32)C(OC(C)=O)C1OC(C)=O (stereo not drawn)
inactive: MOLT-4 39.3 µM | IGROV-1 > 100 µM | COLO 205 38.1 µM | CAKI-1 > 100 µM | SN12C > 100 µM | SK-MEL-5 85.9 µM | HOP-62 98.6 µM | NCI-H460 23.8 µM | OVCAR-4 42.6 µM | 786-0 > 100 µM | HOP-92 > 100 µM | U-251 53.5 µM | EKVX 56.1 µM | DMS-114 19.9 µM | M14 > 100 µM | KM12 39.4 µM

OC1(c2ccc3ccccc3c2)c2ccc3ccccc3c2C2=NCCN21 (stereo not drawn)
inactive: MOLT-4 > 100 µM | IGROV-1 > 100 µM | COLO 205 > 100 µM | CAKI-1 > 100 µM | SN12C > 100 µM | SK-MEL-5 > 100 µM | PC-3 > 100 µM | HOP-62 18.5 µM | NCI-H460 23.6 µM | Hs-578T 24.5 µM | OVCAR-4 22.3 µM | 786-0 24.8 µM | HOP-92 > 100 µM | U-251 45.7 µM | EKVX > 100 µM | M14 > 100 µM | MCF7 48.2 µM | KM12 > 100 µM | A498 > 100 µM

Clc1ccc(CSC2=NCCN2)cc1Cl
inactive: MOLT-4 11.2 µM | IGROV-1 18.9 µM | COLO 205 17.7 µM | CAKI-1 11.2 µM | SN12C 15.2 µM | SK-MEL-5 12.7 µM | PC-3 10.4 µM | HOP-62 23.4 µM | NCI-H460 16.1 µM | Hs-578T 19.8 µM | OVCAR-4 11.6 µM | 786-0 11.6 µM | HOP-92 3.3 µM | U-251 12.5 µM | EKVX 8.89 µM | M14 15.2 µM | MCF7 11.1 µM | KM12 16.9 µM | A498 21.3 µM

CC(=O)NNc1nc(C)c(C(=O)NNC(=O)C(=O)Nc2c(C)cccc2C(C)C)s1
inactive: MOLT-4 44.4 µM | IGROV-1 > 100 µM | COLO 205 > 100 µM | SN12C > 100 µM | SK-MEL-5 95.1 µM | HOP-62 > 100 µM | NCI-H460 86.3 µM | OVCAR-4 32.8 µM | 786-0 > 100 µM | HOP-92 78 µM | U-251 5.97 µM | EKVX > 100 µM | DMS-114 86.7 µM | M14 > 100 µM | KM12 95.7 µM | A498 51.4 µM

O=C(/C=C/c1ccc([N+](=O)[O-])cc1)c1nc2ccccc2[nH]1
inactive: MOLT-4 25.2 µM | IGROV-1 1.68 µM | COLO 205 58.7 µM | CAKI-1 4.23 µM | SN12C > 100 µM | SK-MEL-5 52.2 µM | PC-3 > 64.4 µM | HOP-62 > 34.2 µM | NCI-H460 11.4 µM | Hs-578T > 45.8 µM | OVCAR-4 > 66.1 µM | 786-0 27.4 µM | HOP-92 45.5 µM | U-251 13.2 µM | EKVX 61.5 µM | M14 > 88.9 µM | MCF7 2.21 µM | KM12 29.9 µM | A498 1.73 µM

C=CCOc1ccc(C(/N=N\c2ccc(Cl)cc2)=N/NC(=O)c2ccccc2)cc1OC
inactive: MOLT-4 32.1 µM | IGROV-1 43.8 µM | COLO 205 85.3 µM | CAKI-1 > 100 µM | SN12C 50.5 µM | SK-MEL-5 29.9 µM | PC-3 49.5 µM | HOP-62 > 100 µM | NCI-H460 36.1 µM | Hs-578T 73.1 µM | OVCAR-4 76.7 µM | 786-0 > 100 µM | HOP-92 32.1 µM | U-251 57.3 µM | EKVX > 100 µM | M14 73.5 µM | MCF7 > 100 µM | KM12 38.5 µM | A498 > 100 µM

COC(=O)/C=C1\CCCN1CCc1cc2c(cc1CC#N)OCO2
inactive: MOLT-4 34.4 µM | IGROV-1 > 100 µM | COLO 205 35.2 µM | CAKI-1 > 100 µM | SN12C 50 µM | SK-MEL-5 25.6 µM | PC-3 > 100 µM | HOP-62 52.4 µM | NCI-H460 36 µM | Hs-578T > 100 µM | OVCAR-4 51.3 µM | 786-0 52.7 µM | HOP-92 > 100 µM | U-251 39.7 µM | EKVX 58.9 µM | M14 71.1 µM | MCF7 32.9 µM | KM12 30.7 µM | A498 32.7 µM

COc1ccc(/C=C/C(=O)Oc2ccc(/C=C3\CCCCC3=O)cc2)cc1
inactive: MOLT-4 2.51 µM | IGROV-1 38.6 µM | COLO 205 19.5 µM | CAKI-1 > 100 µM | SN12C 50.9 µM | SK-MEL-5 > 100 µM | PC-3 > 100 µM | HOP-62 23.1 µM | NCI-H460 > 100 µM | Hs-578T > 80.5 µM | OVCAR-4 43.2 µM | 786-0 > 100 µM | HOP-92 > 66.1 µM | U-251 > 94.6 µM | EKVX > 100 µM | M14 > 100 µM | MCF7 > 100 µM | KM12 56.1 µM | A498 > 100 µM

Cc1ccc2c3c1O[C@H]1c4nc5ccccc5cc4C[C@@]4(O)[C@@H](C2)N(CC2CC2)CC[C@]314
inactive: MOLT-4 2.5 µM | IGROV-1 17.5 µM | COLO 205 5.2 µM | CAKI-1 13.2 µM | SN12C 28.6 µM | SK-MEL-5 7.18 µM | PC-3 3.95 µM | HOP-62 12.1 µM | NCI-H460 20 µM | Hs-578T 8.69 µM | OVCAR-4 13.4 µM | 786-0 10.8 µM | HOP-92 19.9 µM | U-251 5.74 µM | EKVX 15.1 µM | M14 12.5 µM | MCF7 10.4 µM | KM12 11.1 µM | A498 16.5 µM

Cc1cc(C)n(-c2nsc3ccccc23)n1
inactive: MOLT-4 > 100 µM | IGROV-1 > 100 µM | COLO 205 > 100 µM | SN12C > 100 µM | SK-MEL-5 > 100 µM | HOP-62 > 100 µM | NCI-H460 > 100 µM | OVCAR-4 > 100 µM | HOP-92 80.5 µM | U-251 > 100 µM | EKVX 91.4 µM | DMS-114 > 100 µM | M14 > 100 µM | KM12 > 100 µM

Cc1cn([C@@H]2O[C@H](CO[Si](C)(C)C(C)(C)C)[C@]3(O[C@H]3C(=O)NN)[C@H]2O[Si](C)(C)C(C)(C)C)c(=O)[nH]c1=O
inactive: MOLT-4 2.04 µM | IGROV-1 6.22 µM | COLO 205 2.64 µM | CAKI-1 11.6 µM | SN12C 5.79 µM | SK-MEL-5 10.4 µM | PC-3 4.6 µM | HOP-62 14.4 µM | NCI-H460 4.31 µM | Hs-578T 2.72 µM | OVCAR-4 6.4 µM | 786-0 4.06 µM | HOP-92 6.24 µM | U-251 4.23 µM | EKVX 8.61 µM | M14 7.18 µM | MCF7 4.26 µM | KM12 7.67 µM | A498 16.9 µM
